From ChEMBL document CHEMBL5465560, “Selectivity Literature for EUbOPEN Chemogenomic Library” (2024)
Each block holds one molecule with its values, some of them ahead of it.

Assays:
[1] = target: T1, Phosphorylase b kinase gamma catalytic chain, liver/testis isoform (Homo sapiens) (UniProt P15735); experiment: Selectivity interaction (KinomeScan (DiscoverX)) EUB0000655a PHKG2; details: at 10 µM
T1 sequence (whole entry): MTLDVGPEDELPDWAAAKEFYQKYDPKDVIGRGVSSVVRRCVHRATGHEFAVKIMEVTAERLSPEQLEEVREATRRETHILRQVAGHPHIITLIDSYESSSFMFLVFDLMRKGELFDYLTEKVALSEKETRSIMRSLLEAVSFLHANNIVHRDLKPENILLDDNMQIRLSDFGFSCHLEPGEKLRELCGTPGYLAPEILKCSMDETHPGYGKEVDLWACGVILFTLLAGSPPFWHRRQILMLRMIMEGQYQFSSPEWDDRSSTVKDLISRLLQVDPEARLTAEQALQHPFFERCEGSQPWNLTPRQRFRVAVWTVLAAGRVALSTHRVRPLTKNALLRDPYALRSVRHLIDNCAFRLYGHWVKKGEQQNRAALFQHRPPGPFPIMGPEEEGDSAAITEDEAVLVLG

[2] = target: T2, Testis-specific serine/threonine-protein kinase 1 (Homo sapiens) (UniProt Q9BXA7); experiment: Selectivity interaction (KinomeScan (DiscoverX)) EUB0001079a TSSK1B; details: at 1 µM
T2 sequence (whole entry): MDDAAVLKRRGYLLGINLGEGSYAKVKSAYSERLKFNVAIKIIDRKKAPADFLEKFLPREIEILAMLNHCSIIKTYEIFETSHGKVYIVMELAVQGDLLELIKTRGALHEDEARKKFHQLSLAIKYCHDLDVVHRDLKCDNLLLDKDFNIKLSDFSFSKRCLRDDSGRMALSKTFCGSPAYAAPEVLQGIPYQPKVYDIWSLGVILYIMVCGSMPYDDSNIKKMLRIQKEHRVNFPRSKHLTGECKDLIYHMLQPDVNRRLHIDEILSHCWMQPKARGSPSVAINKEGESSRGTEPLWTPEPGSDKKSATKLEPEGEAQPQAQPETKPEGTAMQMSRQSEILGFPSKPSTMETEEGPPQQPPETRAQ

[3] = target: Casein kinase II subunit alpha (Homo sapiens, UniProt P68400); experiment: Selectivity interaction (Millipore kinase profiler) EUB0000124b CSNK2A1; details: at 10 µM
[4] = target: Tyrosine-protein kinase ABL1 (Homo sapiens, UniProt P00519); experiment: (§1) Selectivity interaction (Millipore kinase profiler) EUB0000124b ABL1; details: at 10 µM
[5] = test system: Tyrosine-protein kinase ABL1 (Homo sapiens), P00519 [T315I]; experiment: as §1; details: at 10 µM
[6] = target: T3, Serine/threonine-protein kinase 36 (Homo sapiens) (UniProt Q9NRP7); experiment: Selectivity interaction (KinomeScan (DiscoverX)) EUB0000666a STK36; details: at 10 µM
T3 sequence (whole entry): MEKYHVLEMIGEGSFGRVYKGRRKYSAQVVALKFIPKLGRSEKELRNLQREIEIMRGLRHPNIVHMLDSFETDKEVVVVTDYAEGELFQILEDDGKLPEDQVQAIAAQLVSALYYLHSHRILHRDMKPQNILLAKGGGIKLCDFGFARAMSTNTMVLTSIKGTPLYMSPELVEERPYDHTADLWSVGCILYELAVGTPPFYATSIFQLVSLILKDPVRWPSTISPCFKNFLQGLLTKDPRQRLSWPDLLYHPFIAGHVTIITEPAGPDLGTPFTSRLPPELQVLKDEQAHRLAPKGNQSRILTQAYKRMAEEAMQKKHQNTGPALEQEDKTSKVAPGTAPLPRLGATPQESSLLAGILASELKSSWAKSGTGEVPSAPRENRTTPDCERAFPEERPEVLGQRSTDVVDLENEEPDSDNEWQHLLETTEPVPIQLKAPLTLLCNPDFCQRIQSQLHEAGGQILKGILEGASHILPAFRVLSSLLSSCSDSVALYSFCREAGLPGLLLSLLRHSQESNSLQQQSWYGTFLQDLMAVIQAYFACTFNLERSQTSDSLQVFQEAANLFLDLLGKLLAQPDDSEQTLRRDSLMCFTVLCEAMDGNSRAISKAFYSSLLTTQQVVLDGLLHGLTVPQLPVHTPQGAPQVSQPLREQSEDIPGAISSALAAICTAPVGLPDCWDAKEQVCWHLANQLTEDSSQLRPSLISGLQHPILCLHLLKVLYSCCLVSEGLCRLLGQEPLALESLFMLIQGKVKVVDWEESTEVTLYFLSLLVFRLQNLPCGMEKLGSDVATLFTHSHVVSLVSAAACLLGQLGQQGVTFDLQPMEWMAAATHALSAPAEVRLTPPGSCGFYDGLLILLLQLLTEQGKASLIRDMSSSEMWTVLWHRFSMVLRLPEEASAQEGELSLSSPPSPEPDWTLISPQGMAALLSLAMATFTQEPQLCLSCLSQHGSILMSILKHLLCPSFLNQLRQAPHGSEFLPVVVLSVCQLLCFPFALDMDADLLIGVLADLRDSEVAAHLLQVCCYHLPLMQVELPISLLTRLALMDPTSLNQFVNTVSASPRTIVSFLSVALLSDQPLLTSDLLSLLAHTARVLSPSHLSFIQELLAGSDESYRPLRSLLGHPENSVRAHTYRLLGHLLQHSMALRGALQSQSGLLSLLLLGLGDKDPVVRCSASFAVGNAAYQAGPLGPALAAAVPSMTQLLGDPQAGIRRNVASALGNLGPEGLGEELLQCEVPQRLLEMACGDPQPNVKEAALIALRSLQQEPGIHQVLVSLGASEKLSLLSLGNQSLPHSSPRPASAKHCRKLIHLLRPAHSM

[7] = target: Homeodomain-interacting protein kinase 1 (Homo sapiens, UniProt Q86Z02); experiment: Selectivity interaction (Kinase panel (Z-LYTE Assay)) EUB0001632a HIPK1; details: at 10 µM
[8] = target: Serine/threonine-protein kinase 33 (Homo sapiens) (UniProt Q9BYT3); experiment: Selectivity interaction (KinomeScan (DiscoverX)) EUB0000695a STK33; details: at 100 nM
Serine/threonine-protein kinase 33 (Homo sapiens), sequence (Q9BYT3 whole entry, looked up): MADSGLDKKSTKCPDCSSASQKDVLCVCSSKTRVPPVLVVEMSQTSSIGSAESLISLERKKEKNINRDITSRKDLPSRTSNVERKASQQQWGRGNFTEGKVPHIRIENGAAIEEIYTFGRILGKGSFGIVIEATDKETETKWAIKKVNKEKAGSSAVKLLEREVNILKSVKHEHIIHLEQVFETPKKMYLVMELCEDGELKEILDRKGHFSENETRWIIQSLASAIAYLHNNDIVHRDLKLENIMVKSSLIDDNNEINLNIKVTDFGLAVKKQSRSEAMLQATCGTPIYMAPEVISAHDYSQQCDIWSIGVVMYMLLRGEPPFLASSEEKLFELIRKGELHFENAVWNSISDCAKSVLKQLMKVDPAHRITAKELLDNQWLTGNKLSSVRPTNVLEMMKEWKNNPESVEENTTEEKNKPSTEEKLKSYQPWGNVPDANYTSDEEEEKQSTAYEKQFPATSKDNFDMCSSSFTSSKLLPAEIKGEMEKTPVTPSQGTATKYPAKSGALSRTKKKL

Casein kinase II subunit alpha, sequence (P68400 whole entry, looked up): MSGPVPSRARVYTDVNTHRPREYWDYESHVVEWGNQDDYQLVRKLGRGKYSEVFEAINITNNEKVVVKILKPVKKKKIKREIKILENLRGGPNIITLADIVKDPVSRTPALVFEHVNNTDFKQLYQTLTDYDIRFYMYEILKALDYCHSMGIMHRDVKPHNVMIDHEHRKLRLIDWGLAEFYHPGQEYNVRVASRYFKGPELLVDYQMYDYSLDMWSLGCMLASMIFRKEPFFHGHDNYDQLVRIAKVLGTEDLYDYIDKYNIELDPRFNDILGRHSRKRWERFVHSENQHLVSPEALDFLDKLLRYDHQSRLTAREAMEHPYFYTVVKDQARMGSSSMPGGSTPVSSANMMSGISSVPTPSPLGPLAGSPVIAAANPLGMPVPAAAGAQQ
Homeodomain-interacting protein kinase 1, sequence (Q86Z02 whole entry, looked up): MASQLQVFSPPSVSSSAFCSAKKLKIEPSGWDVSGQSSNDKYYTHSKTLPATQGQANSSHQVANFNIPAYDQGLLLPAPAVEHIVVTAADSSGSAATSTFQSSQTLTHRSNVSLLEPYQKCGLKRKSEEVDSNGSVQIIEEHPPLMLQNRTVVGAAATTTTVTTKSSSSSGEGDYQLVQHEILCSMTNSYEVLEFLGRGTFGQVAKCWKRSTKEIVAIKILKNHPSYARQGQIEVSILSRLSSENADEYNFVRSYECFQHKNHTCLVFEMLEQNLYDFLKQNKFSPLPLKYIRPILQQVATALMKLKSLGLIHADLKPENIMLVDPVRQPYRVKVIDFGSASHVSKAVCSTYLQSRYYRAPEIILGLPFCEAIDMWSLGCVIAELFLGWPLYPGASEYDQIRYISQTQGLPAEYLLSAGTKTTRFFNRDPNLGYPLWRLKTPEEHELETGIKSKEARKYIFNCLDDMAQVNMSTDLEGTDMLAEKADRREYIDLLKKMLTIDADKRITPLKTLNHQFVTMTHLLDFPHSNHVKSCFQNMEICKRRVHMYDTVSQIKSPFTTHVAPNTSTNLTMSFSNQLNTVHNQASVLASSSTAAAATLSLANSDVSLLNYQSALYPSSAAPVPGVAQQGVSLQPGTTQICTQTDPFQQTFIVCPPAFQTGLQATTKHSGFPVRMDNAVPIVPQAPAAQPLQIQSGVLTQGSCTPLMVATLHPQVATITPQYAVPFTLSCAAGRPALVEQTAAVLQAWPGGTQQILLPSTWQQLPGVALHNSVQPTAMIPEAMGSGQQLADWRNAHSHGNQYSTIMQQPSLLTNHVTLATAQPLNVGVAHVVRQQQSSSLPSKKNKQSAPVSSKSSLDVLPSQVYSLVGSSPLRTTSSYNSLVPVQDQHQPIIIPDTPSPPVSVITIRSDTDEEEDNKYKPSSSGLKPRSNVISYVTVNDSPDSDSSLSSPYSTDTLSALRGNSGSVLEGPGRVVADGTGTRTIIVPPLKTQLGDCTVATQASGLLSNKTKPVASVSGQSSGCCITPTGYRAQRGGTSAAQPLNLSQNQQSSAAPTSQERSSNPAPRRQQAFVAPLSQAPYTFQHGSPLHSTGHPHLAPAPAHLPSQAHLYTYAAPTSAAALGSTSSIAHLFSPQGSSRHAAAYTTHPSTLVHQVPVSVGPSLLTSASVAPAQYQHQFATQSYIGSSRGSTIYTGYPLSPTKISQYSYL

SMILES: CN(C)CCOc1ccc(-c2nc(-c3ccncc3)c(-c3ccc4c(c3)CC/C4=N\O)[nH]2)cc1
% of control [1]: 100%

SMILES: Nc1cnc(N2CCc3cc(S(=O)(=O)Nc4c(F)cc(Cl)cc4F)cc(N4CCCC4=O)c32)nc1 [TP-020n]
% of control [2]: 100%

% of control [3]: 101%
% of control [4]: 95%
% of control [5]: 112%
SMILES: CC(=O)Nc1cccc(-n2c(=O)n(C3CC3)c(=O)c3c(Nc4ccc(I)cc4F)n(C)c(=O)c(C)c32)c1

SMILES: O=C(NOC[C@H](O)CO)c1ccc(F)c(F)c1Nc1ccc(I)cc1F
% of control [6]: 74%

% of control [7]: -0.292%
SMILES: Cn1cc(-n2cnc3c(NCc4nc5cc(Cl)c(Cl)cc5[nH]4)nc(N4CCOCC4)nc32)cn1

SMILES: Cc1cc(F)c(C(=O)Nc2cccc(-c3nncn3C(C)C)n2)cc1-n1cnc(C2CC2)c1
% of control [8]: 78%
